Results as given in patent US4897403A, “Antimalarial compositions and methods” (The United States of America as represented by the …, priority 1986, dated 1990).
Read-outs that look alike come from different tables or passages of the source.

Experiments:
[1] = tested on: chloroquine-resistant clone from Indochina (W-2); assay: microbe, parasite or virus in culture; format: cell-based, P. falciparum; settings: for IC50: Plasmodium falciparum
Description: (§1) Throughout the examples, incorporation of radiolabelled hypoxanthine was used to measure a synchronous growth of the malarial parasites and inhibition of incorporation was the measured parameter of the parasites' rsponse to the drugs. Semi-automated microdilution techniques as disclosed by R. E. Desjardins et al, Antimicrob.

[2] = tested on: chloroquine-resistant clone from Indochina (W-2); assay: microbe, parasite or virus in culture; settings: Plasmodium falciparum
Experimental: as §1
(§2) First, the antimalarial properties of verapamil (a calcium channel blocker "reversing compound") in vitro were studied. […] The drug combinations were dosed in fixed ratios of their 50% inhibitory concentrations.
(§3) The IC50 's of each drug in combination set forth in Table 1 were then calculated as a fraction of the control IC50 and plotted as a fraction of one unit of IC50 in FIG. 1. […] The line connecting each unit of IC50 for each clone represents the additivity of drug effects.

[3] = tested on: chloroquine-sensitive West African clone (D-6); assay: Effect of verapamil on chloroquine sensitivity, Example 2, clone D-6; format: cell-based, P. falciparum; settings: Plasmodium falciparum, clone D-6, CQ sensitive, IC50 + 1SD
Description: as §1

[4] = tested on: chloroquine-sensitive West African clone (D-6); assay: In vitro susceptibility (radiolabelled hypoxanthine incorporation, semi-automated microdilution), Example 1, clone D-6; format: cell-based, P. falciparum; settings: Plasmodium falciparum
Experimental: as §1, §2

[5] = tested on: Isolates of P. falciparum from Thailand; settings: cited from earlier work
[6] = tested on: chloroquine-resistant clone from Brazil (IEC 306); assay: microbe, parasite or virus in culture; format: cell-based, P. falciparum; settings: Plasmodium falciparum
Experimental: as §1, §2, §3

malarial parasites = assay: Antimalarial properties of verapamil in vitro; format: cell-based, P. falciparum
Experimental: as §1, §2

[7] = tested on: malarial parasite growth or hypoxanthine uptake; assay: Effect of verapamil alone on malarial parasite growth or hypoxanthine uptake in vitro; format: cell-based, P. falciparum; settings: 1×10^-6 M and 2×10^-6 M
Description: as §1

Structure (SMILES): CCN(CC)CCCC(C)Nc1ccnc2cc(Cl)ccc12 (stereo not shown) [chloroquine]
- IC50 ([1]; read-out: IC50 of chloroquine + 1 × 10^-6 M VER): 8.4 ± 0.4 nM
- IC50 ([1]; read-out: IC50 of chloroquine + 2 × 10^-6 M VER): 5.6 ± 0.3 nM
- sensitivity of chloroquine-resistant clone to chloroquine in presence of verapamil (FIGS. 2 and 3) ([1]; constant concentration of verapamil, compared with chloroquine-sensitive West African clone): as sensitive to the chloroquine treatment as the chloroquine-sensitive West African clone
- IC50 ([2]; read-out: IC50 of chloroquine in drug combination, CQ 25 nM/VER 75 μM fixed ratio, clone W-2): 1.5 nM
- IC50 ([2]; read-out: IC50 of chloroquine in drug combination, CQ 50 nM/VER 50 μM fixed ratio, clone W-2): 1.3 nM
- IC50 ([2]; read-out: IC50 of chloroquine in drug combination, CQ 75 nM/VER 25 μM fixed ratio, clone W-2): 3.8 nM
- IC50 ([3]; read-out: IC50 of chloroquine + 1 × 10^-6 M VER, with 1 × 10^-6 M verapamil): 7.8 ± 0.6 nM
- IC50 ([3]; read-out: IC50 of chloroquine + 2 × 10^-6 M VER, with 2 × 10^-6 M verapamil): 8.8 ± 0.3 nM
- IC50 ([4]; read-out: IC50 of chloroquine in drug combination, CQ 25 nM/VER 75 μM fixed ratio, clone D-6): 4.4 nM
- IC50 ([4]; read-out: IC50 of chloroquine in drug combination, CQ 50 nM/VER 50 μM fixed ratio, clone D-6): 8 nM
- IC50 ([4]; read-out: IC50 of chloroquine in drug combination, CQ 75 nM/VER 25 μM fixed ratio, clone D-6): 11.4 nM
- IC50 ([4]; read-out: fifty percent inhibitory concentration (IC50), single drug chloroquine, chloroquine alone, clone D-6): 14.1 nM
- resistance of isolates in vitro [5]: resistant
- IC50 ([6]; read-out: IC50 of chloroquine in drug combination, CQ 25 nM/VER 75 μM fixed ratio, clone IEC-306): 2.8 nM
- IC50 ([6]; read-out: IC50 of chloroquine in drug combination, CQ 50 nM/VER 50 μM fixed ratio, clone IEC-306): 6.3 nM
- IC50 ([6]; read-out: IC50 of chloroquine in drug combination, CQ 75 nM/VER 25 μM fixed ratio, clone IEC-306): 11.7 nM
- IC50 ([6]; read-out: fifty percent inhibitory concentration (IC50), single drug chloroquine, chloroquine alone, clone IEC-306): 52.3 nM

Structure (SMILES): C=C[C@H]1C[N@@]2CC[C@H]1C[C@H]2[C@H](O)c1ccnc2ccc(OC)cc12 [quinine]
- resistance of isolates in vitro [5]: resistant

Structure (SMILES): COc1ccc(CCN(C)CCCC(C#N)(c2ccc(OC)c(OC)c2)C(C)C)cc1OC (stereo not shown) [verapamil]
- IC50 (malarial parasites; Plasmodium falciparum, read-out: inhibitory concentration (IC50)): 6 to 8 µg/mL
- fold less potent than chloroquine or mefloquine (malarial parasites; verapamil vs chloroquine or mefloquine, in vitro): 1,000 fold
- effect on malarial parasite growth or hypoxanthine uptake in vitro [7]: no significant effects

Structure (SMILES): OC(c1cc(C(F)(F)F)nc2c(C(F)(F)F)cccc12)C1CCCCN1 (stereo not shown) [mefloquine]
- resistance of isolates in vitro [5]: resistant
